Patent US11827628B2, “Compositions and methods for inhibition of the JAK pathway” (Rigel Pharmaceuticals, Inc., priority 2005, dated 2023)

Legend:
Primary human T-cells = test: Primary Human T-Cell Proliferation Assay Stimulated with IL-2 (CellTiter-Glo); assay type: cell-based; settings: primary human T-cell proliferation stimulated with IL-2; read-out: IC50, Example 42
Summary of the method: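 Peripheral blood T-cells pre-activated with anti-CD3/anti-CD28 and IL-2 were washed free of IL-2, then cultured with compound plus IL-2 for 72 hours at 37° C, duplicate wells. Viability read as ATP by CellTiter-Glo luminescence; IC50 reported.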

[1] = test system: up-regulation of ICAM-1 (CD54) by IFNγ in A549 lung epithelial cells; test: A549 Epithelial Line Stimulated with IFNγ (ICAM-1 surface expression, FACS); assay type: cell-based, human; settings: A549 epithelial line stimulated with IFNγ; ICAM-1 expression by FACS; read-out: IC50, Example 43
Summary of the method: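 A549 cells pre-incubated 1 h with compound (30 μM to 14 nM, 5% FBS, 0.3% DMSO), then stimulated with IFNγ (75 ng/mL) for 24 h. Surface ICAM-1 stained with APC anti-CD54 and read by flow cytometry; geometric mean of live-gated events plotted against concentration for EC50.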

Row | Compound | IC50 (Primary human T-cells) [nM] | IC50 [1] [nM]
1 | N#CCOc1ccc(Nc2nc(Nc3ccc(Cl)c(S(N)(=O)=O)c3)ncc2F)cc1 [Compound I-21, N2-(3-Aminosulfonyl-4-chlorophenyl)-N4-(4-cyanomethoxy)phenyl-5-fluoro-2,4-pyrimidinediamine] | 258 | 22700
2 | N#CCOc1ccc(Nc2nc(Nc3cccc(S(N)(=O)=O)c3)ncc2F)cc1 [Compound I-17, N2-(3-Aminosulfonyl)phenyl-N4-(4-cyanomethoxy)phenyl-5-fluoro-2,4-pyrimidinediamine] | 43.2 | 2350
3 | Cc1cc(COc2ccc(Nc3nc(Nc4cc(Cl)c(C)c(S(N)(=O)=O)c4)ncc3F)cc2F)no1 [Compound I-223, N2-(3-Aminosulfonyl-5-chloro-4-methylphenyl)-5-fluoro-N4-[3-fluoro-4-(5-methylisoxazol-3-yl)methyleneoxyphenyl]-2,4-pyrimidinediamine] | 625 | 9090
4 | N#CCCc1ccc(Nc2nc(Nc3ccc(F)c(S(N)(=O)=O)c3)ncc2F)cc1 [III-16, N2-(3-Aminosulfonyl-4-fluorophenyl)-N4-[4-(cyanoethylene)phenyl]-5-fluoro-2,4-pyrimidinediamine] | 342 | 7240
5 | Cc1nnc(COc2ccc(Nc3nc(Nc4cccc(S(N)(=O)=O)c4)ncc3F)cc2)o1 [Compound I-277, N2-(3-aminosulfonylphenyl)-5-fluoro-N4-[4-(5-methyl-1,3,4-oxadiazol-2-yl)methyleneoxyphenyl]-2,4-pyrimidinediamine] | 91.5 | 6910
6 | Cc1ccc(Nc2ncc(F)c(Nc3cc(C)c(OCC#N)c(C)c3)n2)cc1S(N)(=O)=O [Compound I-27, N2-(3-Aminosulfonyl-4-methyl)phenyl-N4-(4-cyanomethoxy-3,5-dimethyl)phenyl-5-fluoro-2,4-pyrimidinediamine] | 914 | 3480
7 | CCN(CC)CCNS(=O)(=O)c1cccc(Nc2ncc(F)c(Nc3ccc(OCc4cc(C)on4)cc3)n2)c1 [Compound I-241, N2-[3-(2-N,N-Diethylaminoethyl)aminosulfonylphenyl)-5-fluoro-N4-[4-(5-methylisoxazol-3-yl)methyleneoxyphenyl]-2,4-pyrimidinediamine] | 442 | 
8 | Cc1noc(CCc2ccc(Nc3nc(Nc4ccc(F)c(S(N)(=O)=O)c4)ncc3F)cc2)n1 [Compound I-267, N2-(3-Aminosulfonyl-4-fluorophenyl)-5-fluoro-N4-[4-(3-methyl-1,2,4-oxadiazol-5-yl)ethylenephenyl]-2,4-pyrimidinediamine] | 2020 | 
9 | CCN(CC)CCNS(=O)(=O)c1cccc(Nc2ncc(F)c(Nc3ccc(OCc4csc(C)n4)cc3)n2)c1 [Compound I-283, N2-[3-(2-N,N-Diethylaminoethyl)aminosulfonylphenyl)-5-fluoro-N4-[4-(2-methylthizol-4-yl)methyleneoxyphenyl]-2,4-pyrimidinediamine] | 362 | 
10 | CN1CCC(Oc2ccc(Nc3nc(Nc4cccc(S(N)(=O)=O)c4)ncc3F)cc2)C1 (centres unmarked) [II-9, N2-(3-Aminosulfonylphenyl)-5-fluoro-N4-(N-methylpyrrolidin-3-yloxyphenyl)-2,4-pyrimidinediamine] | 1320 | 
11 | Cc1cc(COc2ccc(Nc3nc(Nc4ccc(C)c(S(N)(=O)=O)c4)ncc3F)cc2Cl)no1 [Compound I-221, N2-(3-Aminosulfonyl-4-methylphenyl)-N4-[3-chloro-4-(5-methylisoxazol-3-yl)methyleneoxyphenyl]-5-fluoro-2,4-pyrimidinediamine] | 2680 | 
12 | Cc1cc(COc2ccc(Nc3nc(Nc4cc(Cl)c(C)c(S(N)(=O)=O)c4)ncc3F)cc2C)no1 [Compound I-216, N2-(3-Aminosulfonyl-5-chloro-4-methylphenyl)-5-fluoro-N4-[3-methyl-4-(5-methylisoxazol-3-yl)methyleneoxyphenyl]-2,4-pyrimidinediamine] | 493 | 
13 | Cc1ccc(Nc2ncc(F)c(Nc3cccc(OC4CCCN(C)C4)c3)n2)cc1S(N)(=O)=O (racemic) [II-1, Racemic N2-(3-aminosulfonyl-4-methylphenyl)-5-fluoro-N4-{3-[(1-methylpiperidin-3-yl)oxy]phenyl}-2,4-pyrimidinediamine] | 1140 | 
14 | CNS(=O)(=O)c1cc(Nc2ncc(F)c(Nc3ccc(OCc4csc(C)n4)cc3)n2)ccc1C [Compound I-282, 5-Fluoro-N2-[3-(N-methylaminosulfony)-4-methylphenyl]-N4-[4-(2-methylthiazol-4-yl)methyleneoxyphenyl]-2,4-pyrimidinediamine] | 697 | 
15 | Cc1cnc(Nc2ccc(S(N)(=O)=O)cc2)nc1Nc1ccc(CCC#N)cc1 [III-27, N2-(4-Aminosulfonylphenyl)-N4-(4-cyanoethylenephenyl)-5-methyl-2,4-pyrimidinediamine] | 119 | 
16 | CCN(CC)CCNS(=O)(=O)c1ccc(Nc2ncc(F)c(Nc3ccc(OCc4nc(C)no4)cc3)n2)cc1 [Compound I-263, N2-[4-(2-N,N-Diethylaminoethyl)aminosulfonylphenyl)-5-fluoro-N4-[4-(3-methyl-1,2,4-oxadiazol-5-yl)methyleneoxyphenyl]-2,4-pyrimidinediamine] | 64.4 | 

Row | Compound | IC50 (Primary human T-cells) [nM] | IC50 [1] [nM]
17 | Cc1cc(Nc2nc(Nc3ccc(C)c(S(N)(=O)=O)c3)ncc2F)ccc1OCC#N [Compound I-24, N2-(3-Aminosulfonyl-4-methyl)phenyl-N4-(4-cyanomethoxy-3-methyl)phenyl-5-fluoro-2,4-pyrimidinediamine] | 296 | 
18 | N2-(3-Aminocarbonyl-5-methylphenyl)-5-fluoro-N2-[4-(1-ethylpyrazol-5-yl)amidophenyl)-2,4-pyrimidinediamine [II-20] | 969 | 
19 | Cc1noc(COc2ccc(Nc3nc(Nc4ccc(S(N)(=O)=O)cc4)ncc3F)cc2)n1 [Compound I-231, N2-(4-Aminosulfonylphenyl)-5-fluoro-N4-[4-(3-methyl-1,2,4-oxadiazol-5-yl)methyleneoxyphenyl]-2,4-pyrimidinediamine] | 290 | 
20 | Cc1noc(COc2ccc(Nc3nc(Nc4cccc(S(N)(=O)=O)c4)ncc3F)cc2)n1 [Compound I-258, N2-(3-Aminosulfonylphenyl)-5-fluoro-N4-[4-(3-methyl-1,2,4-oxadiazol-5-yl)methyleneoxyphenyl]-2,4-pyrimidinediamine] | 55.4 | 
21 | Cc1cc(COc2ccc(Nc3nc(Nc4ccc(F)c(S(N)(=O)=O)c4)ncc3F)cc2)no1 [Compound I-233, N2-(3-Aminosulfonyl-4-fluorophenyl)-5-fluoro-N4-[4-(5-methylisoxazol-3-yl)methyleneoxyphenyl]-2,4-pyrimidinediamine] | 377 | 
22 | NS(=O)(=O)c1cccc(Nc2ncc(F)c(Nc3ccc(Cc4ccncc4)cc3)n2)c1 [III-70, N2-(3-Aminosulfonylphenyl)-5-fluoro-N4-[4-(4-pyridinylmethyl)phenyl]-2,4-pyrimidinediamine] | 169 | 
23 | CNS(=O)(=O)c1cc(Nc2ncc(F)c(Nc3ccc(OCc4cc(C)on4)cc3)n2)ccc1C [Compound I-235, 5-Fluoro-N2-[3-(N-methyl)aminosulfonyl-4-methylphenyl]-N4-[4-(5-methylisoxazol-3-yl)methyleneoxyphenyl]-2,4-pyrimidinediamine] | 470 | 
24 | Cc1cc(COc2ccc(Nc3nc(Nc4ccc(F)c(S(N)(=O)=O)c4)ncc3F)cc2C)no1 [Compound I-237, N2-(3-Aminosulfonyl-4-fluorophenyl)-5-fluoro-N4-[3methyl-4-(5-methylisoxazol-3-yl)methyleneoxyphenyl]-2,4-pyrimidinediamine] | 2040 | 
25 | N2-(3-Aminocarbonyl-5-methylphenyl)-5-fluoro-N2-[4-(1-methylpyrazol-5-yl)amidophenyl)-2,4-pyrimidinediamine [II-21] | 1760 | 
26 | N#CCc1ccc(Nc2nc(Nc3ccc(F)c(S(N)(=O)=O)c3)ncc2F)cc1 [III-10, N2-(3-Aminosulfonyl-4-fluoro)phenyl-N4-(4-cyanomethyl)phenyl-5-fluoro-2,4-pyrimidinediamine] | 922 | 
27 | Cc1nc(COc2ccc(Nc3nc(Nc4cccc(S(N)(=O)=O)c4)ncc3F)cc2)cs1 [Compound I-281, N2-(3-Aminosulfonylphenyl)-5-fluoro-N4-[4-(2-methylthiazol-4-yl)methyleneoxyphenyl]-2,4-pyrimidinediamine] | 90.4 | 
28 | N#CCCc1ccc(Nc2nc(Nc3cccc(S(N)(=O)=O)c3)ncc2F)cc1C(F)(F)F [III-31, N4-(4-Cyanoethylene-3-trifluoromethylphenyl)-5-fluoro-N2-(3-aminosulfonylphenyl)-2,4-pyrimidinediamine] | 328 | 
29 | CCN(CC)CCNS(=O)(=O)c1ccc(Nc2ncc(F)c(Nc3cccc(OCc4nc(C)no4)c3)n2)cc1 [Compound I-256, N2-[4-(2-N,N-Diethylaminoethyl)aminosulfonylphenyl)-5-fluoro-N4-[3-(3-methyl-1,2,4-oxadiazol-5-yl)methyleneoxyphenyl]-2,4-pyrimidinediamine] | 38200 | 
30 | N#CCOc1ccc(Nc2nc(Nc3ccc(F)c(S(N)(=O)=O)c3)ncc2F)cc1 [Compound I-33, N2-(3-Aminosulfonyl-4-fluoro)phenyl-N4-(4-cyanomethoxy)phenyl-5-fluoro-2,4-pyrimidinediamine] | 170 | 
31 | Cc1ccc(Nc2ncc(F)c(Nc3cccc(CNC(=O)C4CC4)c3)n2)cc1S(N)(=O)=O [III-40, N2-(3-aminosulfonyl-4-methyl)phenyl-N4-(3-cyclopropylcarbonylaminomethyl)phenyl-5-fluoro-2,4-pyrimidinediamine] | 229 | 
32 | Cc1noc(COc2ccc(Nc3nc(Nc4ccc(F)c(S(N)(=O)=O)c4)ncc3F)cc2)n1 [Compound I-266, N2-(3-Aminosulfonyl-4-fluorophenyl)-5-fluoro-N4-[4-(3-methyl-1,2,4-oxadiazol-5-yl)methyleneoxyphenyl]-2,4-pyrimidinediamine] | 201 | 
